Experimental data: the supplement of paper PMC10883282

How the values were obtained:
HT1080 [1] = assay: relative viability vs DMSO control (72 h) (fraction); higher = more viable cells
Method in brief: (§1)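 A 5 µM positive control and 0.1% DMSO vehicle ran alongside sarcoma cell lines seeded in 384-well plates to reach 80–90% confluence. Serially diluted compound, 2.5 µl from source plates of 10 mM to 0.0002 mM, was added after 24 h, and the plates were held 72 h at 37 °C, 5% CO2. Relative viability was worked out from ATPLite readings as percent growth averaged over up to triplicate wells. The values were rescaled so that 1 is full and 0 is none.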

KHOS-NP [2] = assay: as above
Method in brief: as §1

RD-ES [3] = assay: as above
Method in brief: as §1

SW684 [4] = assay: as above
Method in brief: as §1

SYO-1 [5] = assay: as above
Method in brief: as §1

A204 = assay: standardised AUC of viability dose-response curve (72 h) (fraction (0-1)); higher = less growth inhibition (more resistant)
Method in brief: (§2)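 After 72 h with 2.5 µl of compound (compound-plate series 10 mM to 0.0002 mM), triplicate wells of sarcoma cell lines in 384-well plates were read with ATPLite, with viability scaled 1 (full) to 0 (none) and fitted with a four-parameter log-logistic model. The values give the standardised area under the dose-response curve in log-dose space from a modified drexplorer computeAUC. A value of 1 means no response and 0 means full response.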

G401 = assay: as above
Method in brief: as §2

HS729 = assay: as above
Method in brief: as §2

HT1080 [6] = assay: as above
Method in brief: as §2

KHOS-240S = assay: as above
Method in brief: as §2

KHOS-NP [7] = assay: as above
Method in brief: as §2

MES-SA = assay: as above
Method in brief: as §2

RD-ES [8] = assay: as above
Method in brief: as §2

RD = assay: as above
Method in brief: as §2

SK-ES-1 = assay: as above
Method in brief: as §2

SK-LMS-1 = assay: as above
Method in brief: as §2

SW1353 = assay: as above
Method in brief: as §2

SW684 [9] = assay: as above
Method in brief: as §2

SW872 = assay: as above
Method in brief: as §2

SW982 = assay: as above
Method in brief: as §2

SYO-1 [10] = assay: as above
Method in brief: as §2

VA-ES-BJ = assay: as above
Method in brief: as §2

COc1cc(CCc2cc(NC(=O)c3ccc(N4CC(C)NC(C)C4)cc3)n[nH]2)cc(OC)c1 (configuration not stated) [AZD-4547]
relative viability
Details	HT1080 [1]	KHOS-NP [2]	RD-ES [3]	SW684 [4]	SYO-1 [5]
0.00017 µM	1.085	1.079	0.946	1.11	0.945
0.00051 µM	1.1	1.1	0.96	1.1	0.864
0.00152 µM	1.08	1.07	0.959	1.12	0.836
0.00457 µM	1.07	1.08	0.961	1.14	0.763
0.01372 µM	1.06	1.048	0.95	1.07	0.672
0.04115 µM	1.01	1.03	0.9048	1.07	0.637
0.1235 µM	1.04	1.03	0.89	1.06	0.588
0.3704 µM	1.08	1.01	0.871	1.06	0.559
1.111 µM	1.04	1.02	0.808	1.08	0.519
3.333 µM	1.04	1	0.6084	1.08	0.408
10 µM	0.859	0.927	0.173	0.999	0.224

Details	standardised AUC
A204	0.742
G401	0.729
HS729	0.752
HT1080 [6]	0.965
KHOS-240S	0.831
KHOS-NP [7]	0.947
MES-SA	0.857
RD	0.948
RD-ES [8]	0.903
SK-ES-1	0.869
SK-LMS-1	0.988
SW684 [9]	0.965
SW872	0.934
SW982	0.91
SW1353	0.873
SYO-1 [10]	0.698
VA-ES-BJ	0.987

Clc1ccc(Nc2nnc(Cc3ccncc3)c3ccccc23)cc1 [Vatalanib]
relative viability
Details	HT1080 [1]	KHOS-NP [2]	RD-ES [3]	SW684 [4]	SYO-1 [5]
0.00017 µM	1.01	1.041	0.987	1.13	0.921
0.00051 µM	0.995	1.054	0.954	1.0999	0.915
0.00152 µM	0.989	1.04	0.975	1.09	0.937
0.00457 µM	1.01	1.06	0.983	1.11	0.926
0.01372 µM	0.993	1.03	0.967	1.11	0.929
0.04115 µM	0.9838	1.05	0.959	1.1	0.929
0.1235 µM	0.986	1.058	0.965	1.08	0.906
0.3704 µM	1	1.062	0.956	1.12	0.882
1.111 µM	1.021	1.07	0.989	1.09	0.807
3.333 µM	1.02	1.07	0.98	1.03	0.735
10 µM	1.07	1.08	0.947	1.03	0.651
